According to patent US20070264212A1, “Skin Lightening Method” (priority 2004, published 2007):
Entries after “also recorded” stand apart in the source; their conditions may differ.

How the values were obtained:
Format in all cases: in vivo, human
[1] = test system: skin tone of adult test subject, skin type IV (moderate brown), Fitzpatrick classification; assay: Skin tone lightening by oral MSM plus topical application of MSM in water solution (Table II); settings: once daily, 3 months
Procedure: In an alternative embodiment, step 102 may be performed by oral delivery of MSM in combination with a topical application. […] Exemplary results are also shown in […], for the same test subject reported in Table I. Each row of the table indicates result for a procedure that was performed during one of successive 3-month periods. For each procedure described in Table II, MSM delivered was in an effective amount for the reported test subject. Again, some variation in effective amount should be expected between individuals. For the procedures described in Table II, a topical application may be prepared by dissolving the indicated amount of MSM in water to provide an approximately 15% by weight solution. For example, one tablespoon of MSM may be dissolved in 8 to 10 tablespoons of warm water to prepare the solution indicated in the first row. Then, the solution may be applied to the skin, which may be kept moistened with the solution for a period of approximately ten minutes or longer. The solution may be applied cover the entire body, or only in areas where greater lightening of skin tone is desired. The indicated application may be performed once daily for approximately a three-month period. […] Suitable formulations for transdermal patches to deliver MSM should be readily ascertained by one of ordinary skill.

[2] = test system: skin tone of test subject having a natural skin tone of Fitzpatrick type IV; assay: Skin tone lightening by oral and topical MSM in combination with an exfoliate; settings: oral and topical MSM plus exfoliate (e.g. twice-weekly 30% lactic or glycolic acid rinse)
From the text: Referring again to FIG. 1, at step 104, a skin lightening effect may be enhanced by application of an exfoliant during the MSM treatment period. The exfoliant is believed to cause more darkly pigmented cells that formed during a pre-treatment period to be more rapidly shed. […] For example, the treatment regimen described in the second row of Table III may be combined with a twice-weekly rinse in an exfoliate solution. A suitable exfoliate solution may comprise, for example, a 30% solution of lactic or glycolic acid. A lactic acid solution may be more suitable for an individual with sensitive skin. In a test using an exfoliate in combination with oral and topical application, the test subject having a natural skin tone of Fitzpatrick type IV achieved and maintained a class III tone overall, with class II tone in constitutive skin areas.

[3] = test system: skin tone of adult test subject, skin type IV (moderate brown), Fitzpatrick classification; assay: Skin tone lightening by oral MSM supplement taken twice daily (Table I); settings: 3 months
Procedure: A first procedure for performing step 102 is described in Table I below, at various dosage levels and application periods. The application periods indicated in the table were carried out in immediately successive periods on the same individual. Exemplary results are also shown in Table I, for an adult test subject of approximately 45 kg weight having a skin type IV (moderate brown) according to the Fitzpatrick skin type classification. […] Because of variation between individuals, the effective amount of MSM that should be delivered to cause a noticeable change in skin tone may vary somewhat. For example, dosage should be calculated based on body weight. Based on the disclosure herein, one of ordinary skill should be able to determine an effective dosage regimen without undue experimentation. […] For the tested individual, the optimal dose for maximum skin lightening appears to be between 2000 and 4000 mg (45 to 90 mg/kg) daily.

[4] = oral MSM 2000 mg twice daily (4000 mg daily), successive period, same subject

CS(C)(=O)=O [MSM, methyl sulfonyl methane]
Results (observed skin tone), total body complexion ([1]; oral 2000 mg twice daily (4000 mg daily) + topical 1 Tablespoon (10,000 mg) MSM in water, approx. 15% solution): Light olive (skin type III) | Results (observed skin tone), elsewhere than constitutive skin ([1]; oral 2000 mg twice daily (4000 mg daily) + topical 2 Tablespoons (20,000 mg) MSM in water): light olive; elsewhere light olive | Skin tone achieved and maintained, constitutive skin areas [2]: class II | Skin tone achieved and maintained, overall [2]: class III | Results (observed skin tone) ([3]; oral MSM 100 mg twice daily (200 mg daily), adult person ~45 kg, skin type IV): No Change | Results (observed skin tone) ([3]; oral MSM 250 mg twice daily (500 mg daily), successive period, same subject): No Change | Results (observed skin tone) ([3]; oral MSM 500 mg twice daily (1000 mg daily), successive period, same subject): No Change | Results (observed skin tone), constitutive skin such as under the arms, inner thighs, chests and nipples ([3]; oral MSM 1000 mg twice daily (2000 mg daily), successive period, same subject): Light Brown (skin type III) | Results (observed skin tone), constitutive skin [3, 4]: Olive (skin type II) observed in | Results (observed skin tone), facultative skin such as the neck, face, forearms [3, 4]: Light Brown (skin type III) | Results, freckles on face [3, 4]: Freckles on face also lightened | Results (observed skin tone) ([3]; oral MSM 3000 mg twice daily (6000 mg daily), successive period, same subject): did not cause noticeable lightening relative to the 4000 mg regimen; also recorded: Same results as 4000 mg per day
